# From the supplement of paper PMC10307832
# What was measured:
# Assay in all cases: relative viability (nuclei count vs DMSO), 5 days (fraction); higher = more cells survive
# [1] = compound: COc1cc(Nc2c(C#N)cnc3cc(OCCCN4CCN(C)CC4)c(OC)cc23)c(Cl)cc1Cl [Bosutinib] + CC(=O)c1c(C)c2cnc(Nc3ccc(N4CCNCC4)cn3)nc2n(C2CCCC2)c1=O [Palbociclib] (partner 0.5 µM)
# Procedure, shortened: (§1)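 Lung cancer cell lines in 1536-well plates were dosed by pin tool the day after seeding, either with one drug alone or with a fixed anchor-drug dose plus five library-drug doses (not always all listed) in √10 steps. After 5 days, cells were fixed and their nuclei stained in one step (final 0.05% Triton X-100, 1% formaldehyde, 1 ug/ml Hoechst), then counted on 4× images. Relative viability is the nuclei count in treated wells divided by that in vehicle wells. Values are medians of duplicate plates.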
# [2] = compound: COc1cc(Nc2c(C#N)cnc3cc(OCCCN4CCN(C)CC4)c(OC)cc23)c(Cl)cc1Cl [Bosutinib] + CCNC(=O)c1noc(-c2cc(C(C)C)c(O)cc2O)c1-c1ccc(CN2CCOCC2)cc1 [Luminespib] (partner 0.01 µM)
# Procedure, shortened: as §1
# [3] = compound: COc1cc(Nc2c(C#N)cnc3cc(OCCCN4CCN(C)CC4)c(OC)cc23)c(Cl)cc1Cl [Bosutinib] + C[C@]1(O)C[C@@H](c2nc(-c3ccc4ccc(-c5ccccc5)nc4c3)c3c(N)nccn32)C1 [Linsitinib] (partner 1 µM)
# Procedure, shortened: as §1
# [4] = compound: COc1cc(Nc2c(C#N)cnc3cc(OCCCN4CCN(C)CC4)c(OC)cc23)c(Cl)cc1Cl [Bosutinib] + O=C(c1cc(Cc2n[nH]c(=O)c3ccccc23)ccc1F)N1CCN(C(=O)C2CC2)CC1 [Olaparib] (partner 8 µM)
# Procedure, shortened: as §1
# [5] = compound: COc1cc(Nc2c(C#N)cnc3cc(OCCCN4CCN(C)CC4)c(OC)cc23)c(Cl)cc1Cl [Bosutinib] + NC(=O)Nc1cc(-c2cccc(F)c2)sc1C(=O)N[C@H]1CCCNC1 [AZD7762] (partner 0.2 µM)
# Procedure, shortened: as §1
Cell Line,relative viability ([1]; first compound 0.01 µM),relative viability ([1]; first compound 0.03162 µM),relative viability ([1]; first compound 0.1 µM),relative viability ([1]; first compound 1 µM),relative viability ([2]; first compound 0.01 µM),relative viability ([2]; first compound 0.03162 µM),relative viability ([2]; first compound 0.1 µM),relative viability ([2]; first compound 1 µM),relative viability ([3]; first compound 0.01 µM),relative viability ([3]; first compound 0.03162 µM),relative viability ([3]; first compound 0.1 µM),relative viability ([3]; first compound 1 µM),relative viability ([4]; first compound 0.01 µM),relative viability ([4]; first compound 0.03162 µM),relative viability ([4]; first compound 0.1 µM),relative viability ([4]; first compound 1 µM),relative viability ([5]; first compound 0.01 µM),relative viability ([5]; first compound 0.03162 µM),relative viability ([5]; first compound 0.1 µM),relative viability ([5]; first compound 1 µM)
NCI-H2009,0.246,0.302,0.195,0.147,1.01,1.08,1.06,0.671,1.18,1.22,1.2,0.886,0.708,0.709,0.696,0.575,,,,
NCI-H2023,0.373,0.368,0.387,0.297,0.802,0.852,0.704,0.579,0.763,0.743,0.62,0.402,0.493,0.427,0.461,0.423,,,,
NCI-H2170,0.351,0.373,0.383,0.4,0.515,0.665,0.702,0.44,,,,,0.529,0.571,0.539,0.499,0.922,0.924,0.819,0.801
NCI-H2228,0.955,0.943,0.955,0.859,0.104,0.185,0.167,0.109,0.821,,0.818,0.496,0.654,0.671,0.468,0.735,,,,
NCI-H2342,0.539,0.508,0.545,0.579,0.587,0.714,0.694,0.666,,,,,0.419,0.379,0.464,0.432,0.445,0.553,0.459,0.55
SK-LU-1,0.399,0.436,0.397,0.294,0.199,0.189,0.212,0.187,1.06,1.18,1.11,0.631,0.474,0.686,0.5,0.383,,,,
SK-MES-1,0.329,0.327,0.326,0.295,0.812,0.839,0.765,0.284,1.16,1.07,1.08,0.941,0.671,0.896,0.798,0.458,,,,
SW 900,0.524,0.525,0.5,0.352,0.154,,0.183,0.15,,,,,0.824,0.769,0.766,0.538,0.624,0.589,0.581,0.482
SW 1573,0.418,0.419,0.365,0.4,0.267,0.956,0.246,0.183,0.778,0.75,0.807,0.801,0.533,0.457,0.528,0.484,,,,
UMC-11,0.366,0.344,0.33,0.279,0.967,1.16,1.05,0.806,0.916,0.981,0.967,0.866,0.64,0.672,0.248,0.686,,,,
